Experimental data taken from ChEMBL document CHEMBL2062405, “Alkaloids from the root of Isatis indigotica” (J Nat Prod, 2012).
The source made the active and inactive calls. The rule behind the calls is not given here.

Key:
[1] = system: Human immunodeficiency virus 1; assay: Antiviral activity against HIV1 infected in 293T cells cotransfected with VSV-G at 10 uM after 48 hrs by ELISA; assay type: functional, organism-based
[2] = Hepatoprotective activity in rat WB-F344 cells assessed as inhibition of DL-Galactosamine-induced toxicity at 10 uM incubated for 1 hr prior to DL-Galactosamine-challenge measured after 24 hrs by MTT assay; assay type: functional
Bel-7402 = assay: Cytotoxicity against human Bel7402 cells at 10 uM after 96 hrs by MTT assay; assay type: functional, cell-based
BGC-823 = assay: Cytotoxicity against human BGC823 cells at 10 uM after 96 hrs by MTT assay; assay type: functional, cell-based
MCF7 = assay: Cytotoxicity against human MCF7 cells at 10 uM after 96 hrs by MTT assay; assay type: functional, cell-based
Human alphaherpesvirus 1 = assay: Antiviral activity against Herpes simplex virus 1 at 10 uM; assay type: functional, organism-based
HCT-8 = assay: Cytotoxicity against human HCT8 cells at 10 uM after 96 hrs by MTT assay; assay type: functional, cell-based
KETR3 = assay: Cytotoxicity against human Ketr3 cells at 10 uM after 96 hrs by MTT assay; assay type: functional, cell-based
A549 = assay: Cytotoxicity against human A549 cells at 10 uM after 96 hrs by MTT assay; assay type: functional, cell-based
Influenza A virus = assay: Antiviral activity against influenza A virus A/Hanfang/359/95 (H3N2) assessed as inhibition of virus-induced cytopathic effect in cell-based assay; assay type: functional, organism-based
Coxsackievirus B3 = assay: Antiviral activity against Coxsackievirus B3 assessed as inhibition of viral replication; assay type: functional, organism-based; conditions: Enterovirus B

| SMILES | Activity [1] | inhibition at 10 µM [2] | Activity (Bel-7402) | Activity (BGC-823) | Activity (MCF7) | Activity (Human alphaherpesvirus 1) | Activity (HCT-8) | Activity (KETR3) | Activity (A549) | IC50 (Influenza A virus) | IC50 (Coxsackievirus B3) |
| --- | --- | --- | --- | --- | --- | --- | --- | --- | --- | --- | --- |
| COc1cccc2c1[C@@](O)(CC#N)C(=O)N2 | inactive | 47% | inactive | inactive | inactive | inactive | inactive | inactive | inactive | – | – |
| COc1ccc([C@@H](C)c2ccc(O)cc2)c2[nH]cc(CC#N)c12 | inactive | – | inactive | inactive | inactive | inactive | inactive | inactive | inactive | 3.7 µM | – |
| COc1ccc(C(C#N)c2c[nH]c3ccccc23)c2[nH]cc(CC#N)c12 (single isomer, unassigned) | inactive | – | inactive | inactive | inactive | inactive | inactive | inactive | inactive | 3.7 µM | – |
| COc1cccc2[nH]cc(C(C#N)c3ccc(OC)c4c(CC#N)c[nH]c34)c12 (single isomer, unassigned) | inactive | – | inactive | inactive | inactive | inactive | inactive | inactive | inactive | 3.7 µM | – |
| O=C1/C(=C/c2c[nH]c3ccccc23)Nc2ccccc21 | inactive | 44% | inactive | inactive | inactive | inactive | inactive | inactive | inactive | – | – |
| CCOC(=O)C1=C[C@@H](OC(CC)CC)[C@H](NC(C)=O)[C@@H](N)C1 [OSELTAMIVIR] | – | – | – | – | – | – | – | – | – | 1.23 µM | – |
| COc1cccc2[nH]cc(CC#N)c12 [ARVELEXIN] | inactive | – | inactive | inactive | inactive | inactive | inactive | inactive | inactive | 3.7 µM | – |
| NC(=O)CC1C(=O)Nc2ccccc21 (racemic) | inactive | – | inactive | inactive | inactive | inactive | inactive | inactive | inactive | – | 6.87 µM |
| N#CC[C@H]1C(=O)Nc2cccc(O)c21 | inactive | 46% | inactive | inactive | inactive | inactive | inactive | inactive | inactive | – | – |
| Cc1cc(CCCOc2c(C)cc(-c3noc(C(F)(F)F)n3)cc2C)on1 [PLECONARIL] | – | – | – | – | – | – | – | – | – | – | 0.41 µM |
| NC(=O)[C@@H]1CC(=O)Nc2ccccc21 | inactive | 45% | inactive | inactive | inactive | inactive | inactive | inactive | inactive | – | – |
